Bounds are passed on as bounds.

The values that follow come from patent US20240116985A1, “STAPLED PEPTIDES AND METHODS THEREOF” (priority 2020, published 2024).

Test [1] concerns the target T1, full-length beta-Catenin (Uniprot ID P35222) (Homo sapiens, UniProt P35222).
T1 construct: 10 nM full-length beta-Catenin (Uniprot ID P35222)
T1 sequence (P35222 1-781): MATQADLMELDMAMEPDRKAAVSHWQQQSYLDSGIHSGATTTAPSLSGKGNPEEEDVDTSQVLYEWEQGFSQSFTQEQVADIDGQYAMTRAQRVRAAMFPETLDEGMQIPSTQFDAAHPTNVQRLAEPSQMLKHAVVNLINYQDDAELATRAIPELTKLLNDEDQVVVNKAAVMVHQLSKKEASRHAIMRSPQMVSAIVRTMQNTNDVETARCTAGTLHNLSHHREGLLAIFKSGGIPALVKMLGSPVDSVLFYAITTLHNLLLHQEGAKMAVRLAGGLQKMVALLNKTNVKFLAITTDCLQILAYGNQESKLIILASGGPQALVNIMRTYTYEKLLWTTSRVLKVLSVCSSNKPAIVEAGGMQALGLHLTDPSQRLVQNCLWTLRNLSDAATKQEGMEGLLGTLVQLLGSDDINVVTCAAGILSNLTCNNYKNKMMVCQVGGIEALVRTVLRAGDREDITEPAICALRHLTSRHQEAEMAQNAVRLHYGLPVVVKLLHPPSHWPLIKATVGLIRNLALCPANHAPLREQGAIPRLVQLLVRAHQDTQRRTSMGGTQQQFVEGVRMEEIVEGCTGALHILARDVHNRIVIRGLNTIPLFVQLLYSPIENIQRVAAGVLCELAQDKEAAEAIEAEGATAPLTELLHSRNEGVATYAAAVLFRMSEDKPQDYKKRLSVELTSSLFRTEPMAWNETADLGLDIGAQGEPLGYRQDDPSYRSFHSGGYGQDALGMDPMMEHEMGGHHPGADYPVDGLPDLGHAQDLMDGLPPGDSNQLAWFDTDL
Briefly: Fluorescence polarization IC50 (beta-catenin / 5FAM-TCF4 10-53 competition). In kind it is binding. The settings on record: fluorescence polarization; read-out: beta-Catenin FP IC50. In general terms: In fluorescence polarisation assays a small probe gives low polarisation when free and higher when bound to something large.

Test [2] deals with T2, beta-catenin/TCF4 engagement (Homo sapiens, UniProt P35222).
T2 construct: expressed in transfected cells; host or cells: HEK293
T2 sequence (P35222 1-781): T1 sequence (P35222 1-781)
Briefly: Nano-BRET target engagement assay (B-cat-Halo & TCF4-Luc in HEK293 cells). The settings on record: absolute IC50; read-out: NanoBRET Abs IC50. In kind it is cell-based. In general terms: BRET reads energy transfer from a luciferase to a nearby fluorophore.

With `CC(=O)N1CCC[C@]12CC=CCCCC1(CCCC=CCCCOC(=O)N3CC[C@@](C(=O)N[C@@H](Cc4ccsc4)C(=O)N[C@@H](Cc4csc5ccccc45)C(=O)N[C@@H](CCC(N)=O)C(N)=O)(C3)NC(=O)[C@H](CCCN3CCC(F)(F)CC3)NC(=O)[C@H](Cc3ccccc3)NC(=O)[C@H](C)NC(=O)[C@H](C)NC(=O)[C@H](CC(=O)O)NC(=O)[C@H](CC(=O)O)NC1=O)NC(=O)[C@H](CC(C)(C)C)NC(=O)[C@H](CC(=O)O)NC2=O` (stereo partly drawn) [I-1486, Ac-PL3-Asp-Npg-B5-Asp-Asp-Ala-Ala-Phe-F2PipNva-PyrS2-3Thi-BztA-Gln-NH2], the figures for the IC50 in test [1] and in test [2] were 0.005 µM and 17.9 µM, respectively.

`CC(=O)N1CCC[C@]12CC=CCCCC1(CCCC=CCCCOC(=O)N3CC[C@@](C(=O)N[C@@H](Cc4ccsc4)C(=O)N[C@@H](Cc4csc5ccccc45)C(=O)N[C@@H](CCC(N)=O)C(N)=O)(C3)NC(=O)[C@H](CC(=O)N3CCOCC3)NC(=O)[C@H](Cc3ccccc3)NC(=O)[C@H](C)NC(=O)[C@H](C)NC(=O)[C@H](CC(=O)O)NC(=O)[C@H](CC(=O)O)NC1=O)NC(=O)[C@H](CC(C)(C)C)NC(=O)[C@H](CC(=O)O)NC2=O` (stereo partly drawn) [I-1487, Ac-PL3-Asp-Npg-B5-Asp-Asp-Ala-Ala-Phe-MorphAsn-PyrS2-3Thi-BztA-Gln-NH2]: the IC50 (usually the concentration that inhibits the measured activity by half) in test [1] is 0.007 µM; in test [2] it was 21.5 µM.

For the compound `CC(=O)N1CCC[C@]12CC=CCCCC1(CCCC=CCCCOC(=O)N3CC[C@@](C(=O)N[C@@H](Cc4ccsc4)C(=O)N[C@@H](Cc4csc5ccccc45)C(=O)N[C@@H](CCC(N)=O)C(N)=O)(C3)NC(=O)[C@H](CC(=O)N3CCN(C)CC3)NC(=O)[C@H](Cc3ccccc3)NC(=O)[C@H](C)NC(=O)[C@H](C)NC(=O)[C@H](CC(=O)O)NC(=O)[C@H](CC(=O)O)NC1=O)NC(=O)[C@H](CC(C)(C)C)NC(=O)[C@H](CC(=O)O)NC2=O` (stereo partly drawn) [I-1488, Ac-PL3-Asp-Npg-B5-Asp-Asp-Ala-Ala-Phe-MePpzAsn-PyrS2-3Thi-BztA-Gln-NH2], the IC50 in test [1] amounted to 0.006 µM; in test [2] it was 30.3 µM.

With `CC(=O)N1CCC[C@]12CC=CCCCC1(CCCC=CCCCOC(=O)N3CC[C@@](C(=O)N[C@@H](Cc4ccsc4)C(=O)N[C@@H](Cc4csc5ccccc45)C(=O)N[C@@H](CC(N)=O)C(N)=O)(C3)NC(=O)[C@H](CC(C)C)NC(=O)[C@H](Cc3ccccc3)NC(=O)[C@H](C)NC(=O)[C@H](C)NC(=O)[C@H](CC(=O)O)NC(=O)[C@H](CC(=O)O)NC1=O)NC(=O)[C@H](CC(C)(C)C)NC(=O)[C@H](CC(=O)O)NC2=O` (stereo partly drawn) [I-1492, Ac-PL3-Asp-Npg-B5-Asp-Asp-Ala-Ala-Phe-Leu-PyrS2-3Thi-BztA-Asn-NH2], the results for the IC50 in test [1] and in test [2] were 0.005 µM and 7.3 µM, respectively.

With `CC(=O)N1CCC[C@]12CC=CCCCC1(CCCC=CCCCOC(=O)N3CC[C@@](C(=O)N[C@@H](Cc4ccsc4)C(=O)N[C@@H](Cc4csc5ccccc45)C(=O)N[C@@H](CO)C(N)=O)(C3)NC(=O)[C@H](CC(C)C)NC(=O)[C@H](Cc3ccccc3)NC(=O)[C@H](C)NC(=O)[C@H](C)NC(=O)[C@H](CC(=O)O)NC(=O)[C@H](CC(=O)O)NC1=O)NC(=O)[C@H](CC(C)(C)C)NC(=O)[C@H](CC(=O)O)NC2=O` (stereo partly drawn) [I-1493, Ac-PL3-Asp-Npg-B5-Asp-Asp-Ala-Ala-Phe-Leu-PyrS2-3Thi-BztA-Ser-NH2], the IC50 came to 0.01 µM in test [1] and 4.9 µM in test [2].

Turning to `CC(=O)N1CCC[C@]12CC=CCCCC1(CCCC=CCCCOC(=O)N3CC[C@@](C(=O)N[C@@H](Cc4ccsc4)C(=O)N[C@@H](Cc4csc5ccccc45)C(=O)N[C@H](C(N)=O)[C@@H](C)O)(C3)NC(=O)[C@H](CC(C)C)NC(=O)[C@H](Cc3ccccc3)NC(=O)[C@H](C)NC(=O)[C@H](C)NC(=O)[C@H](CC(=O)O)NC(=O)[C@H](CC(=O)O)NC1=O)NC(=O)[C@H](CC(C)(C)C)NC(=O)[C@H](CC(=O)O)NC2=O` (stereo partly drawn) [I-1494, Ac-PL3-Asp-Npg-B5-Asp-Asp-Ala-Ala-Phe-Leu-PyrS2-3Thi-BztA-Thr-NH2], the IC50 in test [1] is 0.005 µM; in test [2], 14.7 µM.

`CC(=O)N1CCC[C@]12CC=CCCCC1(CCCC=CCCCOC(=O)N3CC[C@@](C(=O)N[C@@H](Cc4ccsc4)C(=O)N[C@@H](Cc4csc5ccccc45)C(=O)N[C@H](C(N)=O)C(C)C)(C3)NC(=O)[C@H](CC(C)C)NC(=O)[C@H](Cc3ccccc3)NC(=O)[C@H](C)NC(=O)[C@H](C)NC(=O)[C@H](CC(=O)O)NC(=O)[C@H](CC(=O)O)NC1=O)NC(=O)[C@H](CC(C)(C)C)NC(=O)[C@H](CC(=O)O)NC2=O` (stereo partly drawn) [I-1495, Ac-PL3-Asp-Npg-B5-Asp-Asp-Ala-Ala-Phe-Leu-PyrS2-3Thi-BztA-Val-NH2]: the values for the IC50 in test [1] and in test [2] were 0.024 µM and 23.9 µM, respectively.

For the compound `CC(=O)N1CCC[C@]12CC=CCCCC1(CCCC=CCCCOC(=O)N3CC[C@@](C(=O)N[C@@H](Cc4ccsc4)C(=O)N[C@@H](Cc4csc5ccccc45)C(=O)N[C@@H](Cc4ccccc4)C(N)=O)(C3)NC(=O)[C@H](CC(C)C)NC(=O)[C@H](Cc3ccccc3)NC(=O)[C@H](C)NC(=O)[C@H](C)NC(=O)[C@H](CC(=O)O)NC(=O)[C@H](CC(=O)O)NC1=O)NC(=O)[C@H](CC(C)(C)C)NC(=O)[C@H](CC(=O)O)NC2=O` (stereo partly drawn) [I-1496, Ac-PL3-Asp-Npg-B5-Asp-Asp-Ala-Ala-Phe-Leu-PyrS2-3Thi-BztA-Phe-NH2], the IC50 in test [1] turned out to be 0.051 µM; in test [2], 9.4 µM.

Consider `CC(=O)N1CCC[C@]12CC=CCCCC1(CCCC=CCCCOC(=O)N3CC[C@@](C(=O)N[C@@H](Cc4ccsc4)C(=O)N[C@@H](Cc4csc5ccccc45)C(=O)N[C@@H](Cc4c[nH]c5ccccc45)C(N)=O)(C3)NC(=O)[C@H](CC(C)C)NC(=O)[C@H](Cc3ccccc3)NC(=O)[C@H](C)NC(=O)[C@H](C)NC(=O)[C@H](CC(=O)O)NC(=O)[C@H](CC(=O)O)NC1=O)NC(=O)[C@H](CC(C)(C)C)NC(=O)[C@H](CC(=O)O)NC2=O` (stereo partly drawn) [I-1497, Ac-PL3-Asp-Npg-B5-Asp-Asp-Ala-Ala-Phe-Leu-PyrS2-3Thi-BztA-Trp-NH2], for which the IC50 in test [1] came out at 0.05 µM; in test [2] it was 11.4 µM.

Turning to `CC(=O)N1CCC[C@]12CC=CCCCC1(CCCC=CCCCOC(=O)N3CC[C@@](C(=O)N[C@@H](Cc4ccsc4)C(=O)N[C@@H](Cc4csc5ccccc45)C(=O)N[C@@H](CCO)C(N)=O)(C3)NC(=O)[C@H](CC(C)C)NC(=O)[C@H](Cc3ccccc3)NC(=O)[C@H](C)NC(=O)[C@H](C)NC(=O)[C@H](CC(=O)O)NC(=O)[C@H](CC(=O)O)NC1=O)NC(=O)[C@H](CC(C)(C)C)NC(=O)[C@H](CC(=O)O)NC2=O` (stereo partly drawn) [I-1499, Ac-PL3-Asp-Npg-B5-Asp-Asp-Ala-Ala-Phe-Leu-PyrS2-3Thi-BztA-Hse-NH2], the IC50 worked out at 0.023 µM in test [1] and 6.4 µM in test [2].

Consider `CC(=O)N1CCC[C@]12CC=CCCCC1(CCCC=CCCCOC(=O)N3CC[C@@](C(=O)N[C@@H](Cc4ccsc4)C(=O)N[C@@H](Cc4csc5ccccc45)C(=O)N[C@H](CCC(N)=O)C(N)=O)(C3)NC(=O)[C@H](CC(C)C)NC(=O)[C@H](Cc3ccccc3)NC(=O)[C@H](C)NC(=O)[C@H](C)NC(=O)[C@H](CC(=O)O)NC(=O)[C@H](CC(=O)O)NC1=O)NC(=O)[C@H](CC(C)(C)C)NC(=O)[C@H](CC(=O)O)NC2=O` (stereo partly drawn) [I-1500, Ac-PL3-Asp-Npg-B5-Asp-Asp-Ala-Ala-Phe-Leu-PyrS2-3Thi-BztA-dGln-NH2], for which the IC50 in test [1] amounted to 0.022 µM; in test [2], 4.7 µM.

With `CC(=O)N1CCC[C@]12CC=CCCCC1(CCCC=CCCCOC(=O)N3CC[C@@](C(=O)N[C@@H](Cc4ccsc4)C(=O)N[C@@H](Cc4csc5ccccc45)C(=O)N[C@@H](CCC(N)=O)C(N)=O)(C3)NC(=O)[C@H](CC(C)C)NC(=O)[C@H](Cc3ccccc3)NC(=O)[C@H](CCCN3CCOCC3)NC(=O)[C@H](C)NC(=O)[C@H](CC(=O)O)NC(=O)[C@H](CC(=O)O)NC1=O)NC(=O)[C@H](CC(C)(C)C)NC(=O)[C@H](CC(=O)O)NC2=O` (stereo partly drawn) [I-1501, Ac-PL3-Asp-Npg-B5-Asp-Asp-Ala-MorphNva-Phe-Leu-PyrS2-3Thi-BztA-Gln-NH2], the figures for the IC50 in test [1] and in test [2] were 0.046 µM and > 20 µM, respectively.

Take `CC(=O)N1CCC[C@]12CC=CCCCC1(CCCC=CCCCOC(=O)N3CC[C@@](C(=O)N[C@@H](Cc4ccsc4)C(=O)N[C@@H](Cc4csc5ccccc45)C(=O)N[C@@H](CCC(N)=O)C(N)=O)(C3)NC(=O)[C@H](CC(C)C)NC(=O)[C@H](Cc3ccccc3)NC(=O)[C@H](CCCN3CCC(F)(F)CC3)NC(=O)[C@H](C)NC(=O)[C@H](CC(=O)O)NC(=O)[C@H](CC(=O)O)NC1=O)NC(=O)[C@H](CC(C)(C)C)NC(=O)[C@H](CC(=O)O)NC2=O` (stereo partly drawn) [I-1502, Ac-PL3-Asp-Npg-B5-Asp-Asp-Ala-F2PipNva-Phe-Leu-PyrS2-3Thi-BztA-Gln-NH2]: the results for the IC50 in test [1] and in test [2] were 0.034 µM and > 20 µM, respectively.
